Results as given in PubChem BioAssay (NCI).
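Assay format: 96-well plates, 48-hour exposure. At the GI50, growth is halved. TGI: total growth inhibition.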

How the values were obtained:
Assay in all cases: NCI tumour cell line growth inhibition, 48 h; in the data active = GI50 below about 0.43 µM; inactive = the rest
NCI-H522 lung = test system: NCI-H522 lung
A498 renal = test system: A498 renal
SF-268 CNS = test system: SF-268 CNS
SF-539 CNS = test system: SF-539 CNS
SNB-19 CNS = test system: SNB-19 CNS
COLO 205 colon = test system: COLO 205 colon
HS 578T breast = test system: HS 578T breast
MALME-3M melanoma = test system: MALME-3M melanoma
SNB-75 CNS = test system: SNB-75 CNS
BT-549 breast = test system: BT-549 breast
LOX IMVI melanoma = test system: LOX IMVI melanoma
SK-MEL-28 melanoma = test system: SK-MEL-28 melanoma
MDA-MB-435 = test system: MDA-MB-435
IGROV1 ovarian = test system: IGROV1 ovarian
SF-295 CNS = test system: SF-295 CNS
SK-MEL-2 melanoma = test system: SK-MEL-2 melanoma
OVCAR-3 ovarian = test system: OVCAR-3 ovarian
KM12 colon = test system: KM12 colon
SN12C renal = test system: SN12C renal
NCI-H226 lung = test system: NCI-H226 lung
A549 NSCLC = test system: A549 NSCLC
UACC-62 melanoma = test system: UACC-62 melanoma
HT29 colon = test system: HT29 colon
SK-OV-3 ovarian = test system: SK-OV-3 ovarian
RXF 393 renal = test system: RXF 393 renal
SR leukemia = test system: SR leukemia
T-47D breast = test system: T-47D breast
SW-620 colon = test system: SW-620 colon
CAKI-1 renal = test system: CAKI-1 renal
HOP-92 NSCLC = test system: HOP-92 NSCLC
OVCAR-8 ovarian = test system: OVCAR-8 ovarian
OVCAR-5 ovarian = test system: OVCAR-5 ovarian
UACC-257 melanoma = test system: UACC-257 melanoma
DU-145 prostate = test system: DU-145 prostate
HCC-2998 colon = test system: HCC-2998 colon
SK-MEL-5 melanoma = test system: SK-MEL-5 melanoma
NCI-H23 lung = test system: NCI-H23 lung
EKVX NSCLC = test system: EKVX NSCLC
OVCAR-4 ovarian = test system: OVCAR-4 ovarian
MCF7 breast = test system: MCF7 breast
MOLT-4 leukemia = test system: MOLT-4 leukemia
RPMI-8226 leukemia = test system: RPMI-8226 leukemia
U251 CNS = test system: U251 CNS
NCI/ADR-RES ovarian = test system: NCI/ADR-RES ovarian
TK-10 renal = test system: TK-10 renal
NCI-H460 lung = test system: NCI-H460 lung
K-562 leukemia = test system: K-562 leukemia
MDA-MB-231 breast = test system: MDA-MB-231 breast
PC-3 prostate = test system: PC-3 prostate
HL-60(TB) leukemia = test system: HL-60(TB) leukemia
CCRF-CEM leukemia = test system: CCRF-CEM leukemia
HCT-116 colon = test system: HCT-116 colon
HOP-62 NSCLC = test system: HOP-62 NSCLC
HCT-15 colon = test system: HCT-15 colon
UO-31 renal = test system: UO-31 renal
786-0 renal = test system: 786-0 renal
ACHN renal = test system: ACHN renal
M14 melanoma = test system: M14 melanoma

CC(C)Oc1ccc(-c2nn([C@@H](C)c3oc4ccc(F)cc4c(=O)c3-c3cccc(F)c3)c3ncnc(N)c23)cc1F
inactive: GI50 (NCI-H522 lung) > 100 µM | GI50 (A498 renal) 76.1 µM | GI50 (SF-268 CNS) 19.1 µM | GI50 (SF-539 CNS) 15.2 µM | GI50 (SNB-19 CNS) 32.5 µM | GI50 (COLO 205 colon) 67.3 µM | GI50 (HS 578T breast) 47.5 µM | GI50 (MALME-3M melanoma) > 100 µM | GI50 (SNB-75 CNS) > 100 µM | GI50 (BT-549 breast) 6.99 µM | GI50 (LOX IMVI melanoma) > 100 µM | GI50 (SK-MEL-28 melanoma) > 100 µM | GI50 (MDA-MB-435) > 100 µM | GI50 (IGROV1 ovarian) > 100 µM | GI50 (SF-295 CNS) > 100 µM | GI50 (SK-MEL-2 melanoma) > 100 µM | GI50 (OVCAR-3 ovarian) 30.2 µM | GI50 (KM12 colon) 25.8 µM | GI50 (SN12C renal) 9.89 µM | GI50 (NCI-H226 lung) 26.9 µM | GI50 (A549 NSCLC) 7.7 µM | GI50 (UACC-62 melanoma) > 100 µM | GI50 (HT29 colon) 21.8 µM | GI50 (SK-OV-3 ovarian) > 100 µM | GI50 (RXF 393 renal) 4.36 µM | GI50 (SR leukemia) 4.93 µM | GI50 (T-47D breast) 5.42 µM | GI50 (SW-620 colon) > 100 µM | GI50 (CAKI-1 renal) 5.6 µM | GI50 (HOP-92 NSCLC) 4.71 µM | GI50 (OVCAR-8 ovarian) 11.8 µM | GI50 (OVCAR-5 ovarian) > 100 µM | GI50 (UACC-257 melanoma) > 100 µM | GI50 (DU-145 prostate) > 100 µM | GI50 (HCC-2998 colon) > 100 µM | GI50 (SK-MEL-5 melanoma) 48.9 µM | GI50 (NCI-H23 lung) 60.9 µM | GI50 (EKVX NSCLC) 8.61 µM | GI50 (OVCAR-4 ovarian) > 100 µM | GI50 (MCF7 breast) 6.79 µM | GI50 (MOLT-4 leukemia) 9.28 µM | GI50 (RPMI-8226 leukemia) 6.7 µM | GI50 (U251 CNS) 23.9 µM | GI50 (NCI/ADR-RES ovarian) 20.7 µM | GI50 (TK-10 renal) 7.29 µM | GI50 (NCI-H460 lung) 17.6 µM | GI50 (K-562 leukemia) 5.68 µM | GI50 (MDA-MB-231 breast) 22.9 µM | GI50 (PC-3 prostate) 4.68 µM | GI50 (HL-60(TB) leukemia) 30.4 µM | GI50 (CCRF-CEM leukemia) 6.17 µM | GI50 (HCT-116 colon) 8.96 µM | GI50 (HOP-62 NSCLC) > 100 µM | GI50 (HCT-15 colon) 9.33 µM | GI50 (UO-31 renal) 3.81 µM | GI50 (786-0 renal) 12.8 µM | GI50 (ACHN renal) 50.1 µM | GI50 (M14 melanoma) > 100 µM
> 100 µM: TGI (NCI-H522 lung) | TGI (A498 renal) | TGI (SF-268 CNS) | TGI (SF-539 CNS) | TGI (SNB-19 CNS) | TGI (COLO 205 colon) | TGI (HS 578T breast) | TGI (MALME-3M melanoma) | TGI (SNB-75 CNS) | TGI (BT-549 breast) | TGI (LOX IMVI melanoma) | TGI (SK-MEL-28 melanoma) | TGI (MDA-MB-435) | TGI (IGROV1 ovarian) | TGI (SF-295 CNS) | TGI (SK-MEL-2 melanoma) | TGI (OVCAR-3 ovarian) | TGI (KM12 colon) | TGI (SN12C renal) | TGI (NCI-H226 lung) | TGI (A549 NSCLC) | TGI (UACC-62 melanoma) | TGI (HT29 colon) | TGI (SK-OV-3 ovarian) | TGI (RXF 393 renal) | TGI (SR leukemia) | TGI (T-47D breast) | TGI (SW-620 colon) | TGI (CAKI-1 renal) | TGI (HOP-92 NSCLC) | TGI (OVCAR-8 ovarian) | TGI (OVCAR-5 ovarian) | TGI (UACC-257 melanoma) | TGI (DU-145 prostate) | TGI (HCC-2998 colon) | TGI (SK-MEL-5 melanoma) | TGI (NCI-H23 lung) | TGI (EKVX NSCLC) | TGI (OVCAR-4 ovarian) | TGI (MCF7 breast) | TGI (MOLT-4 leukemia) | TGI (RPMI-8226 leukemia) | TGI (U251 CNS) | TGI (NCI/ADR-RES ovarian) | TGI (TK-10 renal) | TGI (NCI-H460 lung) | TGI (K-562 leukemia) | TGI (MDA-MB-231 breast) | TGI (PC-3 prostate) | TGI (HL-60(TB) leukemia) | TGI (CCRF-CEM leukemia) | TGI (HCT-116 colon) | TGI (HOP-62 NSCLC) | TGI (HCT-15 colon) | TGI (UO-31 renal) | TGI (786-0 renal) | TGI (ACHN renal) | TGI (M14 melanoma)
